In brackets after ≈: the same amount, converted by molar mass. Activity calls are given as the source filed them. No cut-off for these calls is given here.
Tests used:
Suid alphaherpesvirus 1 [1] = assay: Antiviral activity against Suid alphaherpesvirus 1 infected in pig PK-15 cells assessed as inhibition of replication pretreated with compound for 2 hrs followed by viral infection and measured after 48 hrs; type: functional, organism-based; settings: Suid alphaherpesvirus 1, PK-15
Suid alphaherpesvirus 1 [2] = assay: Antiviral activity against Suid alphaherpesvirus 1 infected in pig PK-15 cells assessed as inhibition of viral growth; type: functional; settings: Suid alphaherpesvirus 1, in Sus scrofa
Suid alphaherpesvirus 1 [3] = assay: Antiviral activity against Suid alphaherpesvirus 1; type: functional, organism-based
[4] = Cytotoxicity against pig PK-15 cells; type: toxicity, cell-based, Sus scrofa
Suid alphaherpesvirus 1 [5] = assay: Antiviral activity against Suid alphaherpesvirus 1 infected in pig PK-15 cells assessed as inhibition of replication at >200 nM pretreated with compound for 2 hrs followed by viral infection and measured after 48 hrs; type: functional; settings: time 50 hrs
[6] = Half life in male Kunming mouse at 30 mg/kg, ip measured upto 8 hrs by LC-MS/MS analysis; type: ADME, organism-based; settings: in vivo
[7] = Tmax in male Kunming mouse at 30 mg/kg, ip measured up to 8 hrs by LC-MS/MS analysis; type: ADME, organism-based; settings: in vivo
[8] = Cmax in male Kunming mouse at 30 mg/kg, ip measured up to 8 hrs by LC-MS/MS analysis; type: ADME, organism-based; settings: in vivo
[9] = AUC (0 to t) in male Kunming mouse at 30 mg/kg, ip measured up to 8 hrs by LC-MS/MS analysis; type: ADME, organism-based; settings: in vivo
[10] = AUC (0 to infinity) in male Kunming mouse at 30 mg/kg, ip measured up to 8 hrs by LC-MS/MS analysis; type: ADME, organism-based; settings: in vivo
[11] = MRT (0 to t) in male Kunming mouse at 30 mg/kg, ip measured up to 8 hrs by LC-MS/MS analysis; type: ADME, organism-based; settings: in vivo
[12] = MRT (0 to infinity) in male Kunming mouse at 30 mg/kg, ip measured up to 8 hrs by LC-MS/MS analysis; type: ADME, organism-based; settings: in vivo
Suid alphaherpesvirus 1 [13] = assay: Antiviral activity against Suid alphaherpesvirus 1 infected in Kunming mouse assessed as survival at 30 mg/kg, ip measured at 7.3 days; type: functional, organism-based; settings: time 7.3 day
Suid alphaherpesvirus 1 [14] = assay: Antiviral activity against Suid alphaherpesvirus 1 infected in Kunming mouse assessed as reduction in viral copy numbers in blood at 30 mg/kg, ip measured on day 6 by qPCR analysis; type: functional, organism-based; settings: time 6.0 day
Suid alphaherpesvirus 1 [15] = assay: Antiviral activity against Suid alphaherpesvirus 1 infected in Kunming mouse assessed as reduction in viral copy numbers in brain at 30 mg/kg, ip measured on day 6 by qPCR analysis; type: functional; settings: time 6 day
Suid alphaherpesvirus 1 [16] = assay: Antiviral activity against Suid alphaherpesvirus 1 infected in Kunming mouse assessed as inhibition of viral copy numbers in brain at 30 mg/kg, ip measured on day 6 by qPCR analysis; type: functional; settings: Suid alphaherpesvirus 1, 144 h, time 6 day
[17] = Cytotoxicity against pig PK-15 cells assessed as cell viability incubated for 72 hrs by CCK-8 assay; type: toxicity, cell-based, Sus scrofa
Suid alphaherpesvirus 1 [18] = assay: Antiviral activity against Suid alphaherpesvirus 1 infected in pig PK-15 cells assessed as inhibition of viral replication; type: functional, organism-based; settings: Suid alphaherpesvirus 1, PK-15
Suid alphaherpesvirus 1 [19] = assay: Antiviral activity against Suid alphaherpesvirus 1 infected in pig PK-15 cells infected for 1 hr followed by compound addition and measured after 48 hrs; type: functional, organism-based; settings: Suid alphaherpesvirus 1, PK-15
Suid alphaherpesvirus 1 [20] = assay: Antiviral activity against Suid alphaherpesvirus 1 infected in pig PK-15 cells; type: functional, organism-based; settings: Suid alphaherpesvirus 1, PK-15
Suid alphaherpesvirus 1 [21] = assay: Antiviral activity against Suid alphaherpesvirus 1 infected in pig PK-15 cells assessed as inhibition of viral replication pretreated with compound for 2 hrs followed by viral infection and measured after 24 hrs by ELISA analysis; type: functional, organism-based; settings: Suid alphaherpesvirus 1, PK-15
Suid alphaherpesvirus 1 [22] = assay: Antiviral activity against Suid alphaherpesvirus 1 infected in pig PK-15 cells assessed as inhibition of replication at 1 uM pretreated with compound for 2 hrs followed by viral infection and measured after 48 hrs (reference value: 99.6%); type: functional; settings: Suid alphaherpesvirus 1, PK-15, in Sus scrofa, time 50 hrs

## O=C(NCc1cc(Cl)ccn1)c1cn(C2CC2)c2cc(N3CCNCC3)c(F)cc2c1=O
Suid alphaherpesvirus 1 [1]
  EC50: 0.39 nM
Suid alphaherpesvirus 1 [2]
  MIC80: 8 nM (≈ 3.65 ng/mL)

## O=C(NCc1ccc(Cl)c(Cl)c1)c1cn(C2CC2)c2cc(N3CCNCC3)c(F)cc2c1=O
Suid alphaherpesvirus 1 [1]
  EC50: 0.25 nM
Suid alphaherpesvirus 1 [2]
  MIC80: 8 nM (≈ 3.92 ng/mL)

## Cn1cc(C(=O)NCc2ccc(Cl)cc2)c(=O)c2cc(CN3CCOCC3)ccc21
Suid alphaherpesvirus 1 [3]
  EC50: 0.1 nM
[4]
  CC50: 45200 nM
Suid alphaherpesvirus 1 [1]
  EC50: 1.45 nM
Suid alphaherpesvirus 1 [2]
  MIC80: 0.32 nM (≈ 0.136 ng/mL)

## CCCCCC/C=C\CCCCCCCc1cccc(O)c1C(=O)O [GINGKOLIC ACID]
Suid alphaherpesvirus 1 [3]
  EC50: 3400 nM

## O=C(NCc1cc(Cl)ccc1F)c1cn(-c2ccccc2)c2cc(N3CCNCC3)c(F)cc2c1=O
Suid alphaherpesvirus 1 [1]
  EC50: 0.29 nM
Suid alphaherpesvirus 1 [2]
  MIC80: 1.6 nM (≈ 0.814 ng/mL)
Suid alphaherpesvirus 1 [5]
  inhibition (INH): <=99.5%
[6]
  half-life: 3.24 h
[7]
  Tmax: 1.5 h
[8]
  Cmax: 342 ng/mL
[9]
  AUC(0-t) at 8 h: 1020 ng·h/mL
[10]
  AUC(0-inf): 1330 ng·h/mL
[11]
  MRT last at 8 h: 3.15 h
[12]
  MRT inf: 5.34 h
Suid alphaherpesvirus 1 [13]
  Activity: Active
Suid alphaherpesvirus 1 [14]
  Activity: Active
Suid alphaherpesvirus 1 [15]
  Activity: 280 g⁻¹
Suid alphaherpesvirus 1 [16]
  inhibition in vivo at 30 mg/kg: > 99%

## O=C(NCc1cc(Cl)ccc1Cl)c1cn(C2CC2)c2cc(N3CCNCC3)c(F)cc2c1=O
Suid alphaherpesvirus 1 [1]
  EC50: 0.71 nM
Suid alphaherpesvirus 1 [2]
  MIC80: 8 nM (≈ 3.92 ng/mL)

## O=C(NCc1ccc(Cl)cc1)c1cn(C2CC2)c2cc(N3CCNCC3)c(F)cc2c1=O
Suid alphaherpesvirus 1 [1]
  EC50: 2.21 nM
[17]
  CC50 at 72 h: 9300 nM
Suid alphaherpesvirus 1 [2]
  MIC80: 200 nM (≈ 91 ng/mL)

## CN(C)CCNC(=O)c1cn(C)c2ccc(CN3CCOCC3)cc2c1=O
Suid alphaherpesvirus 1 [18]
  EC50: 0.014 nM
[4]
  CC50: 344000 nM

## Oc1ccc(O)cc1 [HYDROQUINONE]
Suid alphaherpesvirus 1 [3]
  EC50: 8300 nM

## Cc1cc(O)c2c(c1)C(=O)c1cc(O)cc(O)c1C2=O [EMODIN]
Suid alphaherpesvirus 1 [19]
  EC50: 470 nM

## O=C(NCc1cc(Cl)ccc1F)c1cn(C2CC2)c2cc(N3CCNCC3)c(F)cc2c1=O
Suid alphaherpesvirus 1 [1]
  EC50: 0.21 nM
[17]
  CC50 at 72 h: > 100000 nM
Suid alphaherpesvirus 1 [2]
  MIC80: 1.6 nM (≈ 0.757 ng/mL)
Suid alphaherpesvirus 1 [5]
  inhibition (INH): <=99.5%

## O=C(NCc1cc(Cl)ccc1F)c1cn(Cc2ccccc2)c2cc(N3CCNCC3)c(F)cc2c1=O
Suid alphaherpesvirus 1 [1]
  EC50: 2.11 nM
Suid alphaherpesvirus 1 [2]
  MIC80: 40 nM (≈ 20.9 ng/mL)

## O=C(NCc1cccc(Cl)c1)c1cn(C2CC2)c2cc(N3CCNCC3)c(F)cc2c1=O
Suid alphaherpesvirus 1 [1]
  EC50: 10.2 nM
Suid alphaherpesvirus 1 [2]
  MIC80: 40 nM (≈ 18.2 ng/mL)

## Oc1cc(O)cc(/C=C/c2ccc(O)c(O)c2)c1 [PICEATANNOL]
Suid alphaherpesvirus 1 [20]
  EC50: 126 nM

## CCn1cc(C(=O)NCc2cccc(Cl)c2)c(=O)c2cc(F)c(N3CCNCC3)cc21
Suid alphaherpesvirus 1 [1]
  EC50: 0.85 nM
Suid alphaherpesvirus 1 [2]
  MIC80: 8 nM (≈ 3.54 ng/mL)

## C[C@]12CC[C@H](O)C[C@H]1CC[C@@H]1[C@@H]2CC[C@]2(C)[C@@H](c3ccc(=O)oc3)CC[C@]12O [BUFALIN]
Suid alphaherpesvirus 1 [21]
  EC50: 33 nM

## CCn1cc(C(=O)O)c(=O)c2cc(F)c(N3CCNCC3)cc21 [NORFLOXACIN]
Suid alphaherpesvirus 1 [22]
  inhibition at 1 µM: 66%

## O=C(O)c1cn(C2CC2)c2cc(N3CCNCC3)c(F)cc2c1=O [CIPROFLOXACIN]
Suid alphaherpesvirus 1 [22]
  inhibition at 1 µM: 65%
